From article PMC4212957, “The serodominant secreted effector protein of Salmonella, SseB, is a strong CD4 antigen containing an immunodominant epitope presented by diverse HLA class II alleles” (Immunology, 2014) come the findings set out here.

The subject of one test is HLA-DR heterodimers. Description: Breadth of binding across the HLA-DR panel. Also on record: species or system human. The settings on record: of nine HLA-DR molecules screened; competitive ELISA. The method, then: HLA-DR heterodimers were purified from homozygous Epstein–Barr virus B-lymphoblastoid cell lines (HPA Culture Collections, Salisbury, UK) by affinity chromatography with the monomorphic HLA-DRα monoclonal antibody, L243.[29],[30] Binding of the SseB peptide panel to the HLA-DR molecules HLA-DRB1*01:01, 03:01, 04:01, 07:01, 09:01, 11:01, 12:02, 15:01, 15:02 was assessed by competitive ELISA, as previously described, using an automated workstation.[29],[30] We evaluated the peptide concentration able to prevent binding of 50% of the labelled peptide (IC50). Data were expressed as relative affinity: ratio of the IC50 of the peptide to the IC50 of the reference peptide, which is a high binder to the HLA class II molecule. Unlabelled forms of the biotinylated peptides were used as reference peptides.
The HLA-DR peptide-binding assay used here was designed to give a strong coverage of commonly expressed alleles across diverse populations. For example, the DR1, 3, 4, 7, 11 and 1501 heterodimers cumulatively cover approximately 80% of individuals in Caucasian populations, whereas DR9, DR1202 and DR1502 are rare in Caucasian populations but are found in around a third of individuals in many South East Asian populations. Of the 18 peptides encompassing the SseB overlapping peptide library, 15 show significant HLA-DR binding (Table2). Eight peptides were able to bind specifically to only one or two alleles, but the seven other binders were able to bind more heterodimers. It is noteworthy that there are three peptides, p2, p11 and p18, with the property of binding 6, 7 and 8 different HLA-DR heterodimers, respectively. They span HLA-DRB sequences with rather diverse peptide-binding pockets.

For a further test, the system named is PBMCs. Nature of the test: Human IFN-γ ELISpot. The settings on record: 50 μg/ml peptide, 2 × 10^5 PBMCs, 24 hr; both cohorts; positive if > 2 SD above no-peptide/protein control. The test is classed as cell-based. The method, then: CD4 T cell responses to SseB were analysed in peripheral blood mononuclear cell (PBMC) samples from healthy control donors with no reported clinical history of Salmonella infection and from donors who had been experimentally challenged with S. Typhi 12 months previously as described elsewhere.[28] Healthy control blood samples were collected with informed consent, under the approval of Ethics REC reference number 08/H0707/173. The S. Typhi challenge participants were recruited by the Oxford Vaccine Group, University of Oxford and the study was performed at the Centre for Clinical Vaccinology and Tropical Medicine, Oxford. Ethics approval was obtained from the NRES Committee South Central – Oxford A (11/SC/0302). Written, informed consent was provided by all participants. A pre-determined bacterial dose (10^4 colony-forming units) of challenge agent (Quailes strain) was delivered by oral ingestion suspended in a sodium bicarbonate solution.[28] Study exclusion criteria included previous typhoid vaccination, residence in a typhoid endemic country for over 6 months and known diagnosis of a probably or confirmed typhoid infection. Blood samples were collected and PBMCs were purified by Lymphoprep density gradient separation.
Human IFN-γ ELISpot assays were run using reagents from Mabtech (Stockholm, Sweden). Briefly, 2 × 10^5 thawed PBMCs were incubated in pre-coated human IFN-γ ELISpot plates, in triplicate, with 50 μg/ml of SseB peptide or recombinant protein (25 μg/ml) in RPMI-1640 medium containing 2 mM L-glutamine, 50 U/ml penicillin G, 50 μg/ml streptomycin sulphate and 10% fetal calf serum. […] Developed plates were left to dry before spot counting using an AID ELISpot reader (Autoimmun Diagnostika GMBH, Straßberg, Germany). […] To better define HLA restriction, human donor ELISpot responses were also analysed in the presence of HLA class II blocking monoclonal antibodies at a final concentration of 25 μg/ml: L243 (anti-HLA-DRα), SPVL-3 (anti-HLA-DQ), B7/21 (anti-HLA-DP) and control mouse IgG. […]

The target in a further test is HLA-DRB1*04:01 (Homo sapiens, UniProt P01903+P01911, A100K/A169T/F76Y/I96L/K127E/L162R/M171V/N62H/P40V/Q125Y/R42H/S133A/S149N/S66Y/V115G/V209L/W38E). To be noted: competitive ELISA; ratio IC50 of peptide / IC50 of reference peptide HA 306–318; lower = higher affinity; ratio 20 or less high, 20–100 moderate; three independent experiments. A general note: ELISA stands for enzyme-linked immunosorbent assay.

With “2: SseB overlapping library peptide, residues 11–30 (QNPIVFKNSFGVSNADTGSQ) [Peptide 2]”, the “number of different HLA-DR heterodimers bound” value in the test on HLA-DR heterodimers is given as 6. For the same substance, the “human CD4 T-cell IFN-γ ELISpot response to peptide” value in the test on PBMCs was “largest and most common peptide responses”. For the same substance, in the test with HLA-DRB1*04:01, the “Relative binding affinity of peptide to HLA-DR molecules DRB1*0401” value (“Relative binding affinity of peptide” below) is reported as 9.

With “11: SseB overlapping library peptide, residues 101–120 (EDVIKYMRDNGILIDGMTID) [Peptide 11]”, in the test on HLA-DR heterodimers, the “number of different HLA-DR heterodimers bound” value amounted to 7. Besides, the “human CD4 T-cell IFN-γ ELISpot response to peptide” value in the test with PBMCs was “largest and most common peptide responses”. For the same substance, in the test with HLA-DRB1*04:01, the “Relative binding affinity of peptide” value was determined as 17.

On to AVLTQLTGLISKWGEISSMIAQKTYS [Peptide 18], for which the “number of different HLA-DR heterodimers bound” value in the test on HLA-DR heterodimers came to 8. For the same substance, the “human CD4 T-cell IFN-γ ELISpot response to peptide” value in the test on PBMCs was “less frequent among the epitopes recognized”. In addition, the “Relative binding affinity of peptide” value on HLA-DRB1*04:01 was determined as 2.
